Source: patent US11597724B2, “Herbicidally active 3-phenylisoxazoline-5-carboxamides of tetrahydro and dihydrofuran carboxylic acids and esters” (Bayer Aktiengesellschaft, priority 2017, dated 2023)

What was measured:
Format in all cases: in vivo
Stellaria media = experiment: Post-emergence herbicidal activity against STEME; conditions: Stellaria media, 504 h, dosage 320 g/ha, rated about 3 weeks after treatment
Summary of the method: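 Greenhouse plants treated at one-leaf stage, 2–3 weeks after sowing, by spraying WP or EC formulations with 0.5% additive at 600 l/ha water. Visual rating about 3 weeks later versus untreated controls (100% = plants dead, 0% = like controls).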

[1] = Pre-emergence treatment, summary over harmful plants; conditions: 504 h, application rate of 0.08 kg of active substance or less per hectare, read-out: herbicidal action, pre-emergence treatment (very good activity)
Description: 1. Pre-Emergence Herbicidal Action and Crop Plant Compatibility
(§1) Seeds of monocotyledonous and dicotyledonous weed plants and crop plants are placed in plastic or wood fiber pots and covered with soil. The compounds of the invention, formulated in the form of wettable powders (WP) or as emulsion concentrates (EC), are then applied onto the surface of the covering soil as aqueous suspension or emulsion with addition of 0.5% additive at a water application rate of 600 l/ha (converted). After the treatment, the pots are placed in a greenhouse and kept under good growth conditions for the trial plants. After about 3 weeks, the effect of the preparations is scored visually in comparison with untreated controls as percentages. For example, 100% activity=the plants have died, 0% activity=like control plants.
As shown by the results, compounds according to the invention such as, for example, the compounds No. I-21 and other compounds from the tables (for example I-10, I-26, I-09, I-30, I-28, I-29, I-27, I-01, I-06, I-34, I-19, I-11, I-36, I-37, I-38, I-41, I-42, I-43, I-44, I-46, I-49) have, when used for pre-emergence treatment, very good activity (80% to 100% herbicidal action) against harmful plants such as Abutilon theophrasti, Alopecurus myosuroides, Amaranthus retroflexus, Avena fatua, Echinochloa crus-galli, Hordeum murinum, Lolium rigidum, Pharbitis purpurea, Polygonum convolvulus, Setaria viridis, Stellaria media, Veronica persica and Viola tricolor at an application rate of 0.08 kg of active substance or less per hectare.

Pharbitis purpurea [2] = experiment: Post-emergence herbicidal activity against PHBPU; conditions: Ipomoea purpurea, 504 h, dosage 320 g/ha, rated about 3 weeks after treatment
Summary of the method: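 Greenhouse-grown plants sprayed post-emergence at the one-leaf stage, 2 to 3 weeks after sowing, with WP or EC formulations plus 0.5% additive at 600 l/ha water. Activity rated visually after about 3 weeks versus untreated controls (100% = plants dead, 0% = like control).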

Viola tricolor [3] = experiment: Post-emergence herbicidal activity against VIOTR; conditions: Viola tricolor, 504 h, dosage 320 g/ha, rated about 3 weeks after treatment
Summary of the method: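 Greenhouse plants in sandy loam treated at one-leaf stage, 2 to 3 weeks after sowing, by spraying WP or EC formulations with 0.5% additive at 600 l/ha water. Activity rated visually after about 3 weeks versus untreated controls, 100% = plants dead, 0% = like control.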

Pharbitis purpurea [4] = experiment: Pre-emergence herbicidal activity against PHBPU; conditions: Ipomoea purpurea, 504 h, dosage 80 g/ha
Description: as §1, with “1. Pre-Emergence Herbicidal Action and Crop Plant Compatibility Seeds of” for “Seeds of”, “control plants. LOLRI: Lolium rigidum PHBPU: Pharbitis purpurea” for “control plants.”

Viola tricolor [5] = experiment: Pre-emergence herbicidal activity against VIOTR; conditions: dosage 80 g/ha
Description: as §1, with “1. Pre-Emergence Herbicidal Action and Crop Plant Compatibility Seeds of” for “Seeds of”, “control plants. VIOTR: Viola tricolor” for “control plants.”

Amaranthus retroflexus = experiment: Pre-emergence herbicidal activity against AMARE; conditions: dosage 80 g/ha; for pest or weed control at 80 g/ha: Amaranthus retroflexus, 504 h
Summary of the method: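 Seeds sown in pots, covered with soil; WP or EC formulations sprayed onto soil surface as aqueous suspension/emulsion with 0.5% additive at 600 l/ha water. Pots kept in greenhouse ~3 weeks, then effect scored visually versus untreated controls as % (100% = plants dead, 0% = like control).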

| SMILES | pest or weed control at 320 g/ha (Stellaria media) [%] | pest or weed control at 80 g/ha [1] [%] | pest or weed control at 320 g/ha (Pharbitis purpurea [2]) [%] | pest or weed control at 320 g/ha (Viola tricolor [3]) [%] | pest or weed control at 80 g/ha (Pharbitis purpurea [4]) [%] | Pre-emergence herbicidal activity against VIOTR in % (Viola tricolor [5]) [%] | pest or weed control at 80 g/ha (Amaranthus retroflexus) [%] | Pre-emergence herbicidal activity against AMARE in % (Amaranthus retroflexus) [%] |
| --- | --- | --- | --- | --- | --- | --- | --- | --- |
| C=C[C@]1(C(=O)N[C@H]2CO[C@@H](C(=O)OC)C2)CC(c2cc(F)cc(F)c2)=NO1 (mixture of isomers) [I-10, methyl cis-4-[[(5S)-3-(3,5-difluorophenyl)-5-vinyl-4H-isoxazole-5-carbonyl]amino]tetrahydrofuran-2-carboxylate] | 90 | 80 to 100 | 90 | 80 | 80 | 100 | 90 |  |
| COC(=O)[C@H]1C[C@@H](NC(=O)C2(C(F)(F)F)CC(c3cc(F)cc(F)c3)=NO2)CO1 (relative stereo) [I-06, methyl cis-4-[[3-(3,5-difluorophenyl)-5-(trifluoromethyl)-4H-isoxazole-5-carbonyl]amino]tetrahydrofuran-2-carboxylate] | 80 | 80 to 100 | 90 | 90 | 80 | 80 |  |  |
| C=C[C@]1(C(=O)N[C@H]2CO[C@@H](C(=O)OC(C)C)C2)CC(c2cc(F)cc(F)c2)=NO1 (mixture of isomers) [I-36, isopropyl cis-4-[[(5S)-3-(3,5-difluorophenyl)-5-vinyl-4H-isoxazole-5-carbonyl]amino]tetrahydrofuran-2-carboxylate] | 90 | 80 to 100 | 80 | 90 | 90 | 100 | 100 |  |
| C=C[C@]1(C(=O)N[C@H]2CO[C@@H](C(=O)OC)C2)CC(c2cc(F)cc(F)c2)=NO1 (single isomer, unassigned) [I-11] | 90 | 80 to 100 | 90 | 90 | 100 | 100 |  | 100 |
| C=C[C@]1(C(=O)N[C@H]2CO[C@@H](C(=O)OCc3ccccc3)C2)CC(c2cc(F)cc(F)c2)=NO1 (mixture of isomers) [I-37, benzyl cis-4-[[(5S)-3-(3,5-difluorophenyl)-5-vinyl-4H-isoxazole-5-carbonyl]amino]tetrahydrofuran-2-carboxylate] | 90 | 80 to 100 | 90 | 80 | 90 | 100 | 100 |  |
